Data as given in article PMC10683761 (ACS Sensors, 2023).

Columns and labels:
Format in all cases: cell-based, human
[1] = tested on: dLight1.1; conditions: 10 μM compound, sensor dLight1.1, mean ± SEM, N = 40 cells
[2] = tested on: dMASS^1; conditions: 10 μM compound, sensor dMASS^1, mean ± SEM, N = 40 cells
[3] = tested on: dMASS^1; assay: dMASS^1 response to 1 μM DA in presence of dopamine receptor subtype antagonists

Row | Structure (SMILES) | response normalized to 10 μM DA stimulation [1] | response normalized to 10 μM DA stimulation [2] | effect on DA-dependent response of dMASS^1 [3]
1 | NCCc1c[nH]c2ccc(O)cc12 [5-HT, 5-hydroxytryptamine] | 6.61 ± 0.69% | 3.32 ± 0.20% | 
2 | CC(=O)OCC[N+](C)(C)C [ACh, acetylcholine] | 8.22 ± 0.58% | 3.61 ± 0.14% | 
3 | CC(C)NCC(O)c1ccc(O)c(O)c1 (centres unmarked) [Iso, isoproterenol] | 8.89 ± 0.83% | 3.80 ± 0.21% | 
4 | NC[C@H](O)c1ccc(O)c(O)c1 [NE, norepinephrine] | 55.06 ± 4.31% | 58.00 ± 3.46% | 
5 | CN1CCc2cc(Cl)c(O)cc2[C@@H](c2ccccc2)C1 [SCH23390] | 8.87 ± 0.58% | 3.58 ± 0.16% | 
6 | CCN1CCCC1CNC(=O)c1cc(S(N)(=O)=O)ccc1OC (centres unmarked) [Sulpiride] |  |  | but not dMASS^1
